Data set [1] is described as follows: Cytotoxicity against human HEK293 cells assessed as cell growth inhibition. The data set is classed as toxicity, cell-based.
For another data set, the system named is ASPC1. The data set is described as follows: Cytotoxicity against human ASPC1 cells assessed as cell growth inhibition. Type of data set: functional, cell-based.
For the next data set, the system named is T47D. The data set is described as follows: Cytotoxicity against human T47D cells assessed as cell growth inhibition. The data set is classed as functional, cell-based.
Data set [2] deals with HCT-116. Put plainly: Cytotoxicity against human HCT-116 cells assessed as cell growth inhibition. The data set is classed as functional, cell-based.
In data set [3] the test system is QG-56. Put plainly: Cytotoxicity against human QG-56 cells assessed as cell growth inhibition. The data set is classed as functional, cell-based.
Another data set relates to Melanoma cell line. Put plainly: Cytotoxicity against human Melanoma cell line assessed as cell growth inhibition. Type of data set: functional, cell-based.
Data set [4] is described as follows: Cytotoxicity against mouse NIH3T3 cells assessed as cell growth inhibition at 50 ng/ml. The data set is classed as toxicity, cell-based.
Data set [5] relates to DU-145. Put plainly: Cytotoxicity against human DU-145 cells assessed as cell growth inhibition incubated for 4 days by Cell counting kit-8 assay. The settings on record: DU-145, 96 h. Type of data set: functional, cell-based. (In general: Tetrazolium assays rely on reduction of a dye to a coloured formazan, in cell work by metabolically active cells.)
The test system of data set [6] is QG-56. Put plainly: Cytotoxicity against human QG-56 cells assessed as cell growth inhibition incubated for 4 days by Cell counting kit-8 assay. Type of data set: functional, cell-based. The settings on record: QG-56, 96 h.
The next data set concerns HT-29. The data set is described as follows: Cytotoxicity against human HT-29 cells assessed as cell growth inhibition. Type of data set: functional, cell-based.
Data set [7] deals with A549. Put plainly: Cytotoxicity against human A549 cells assessed as cell growth inhibition. Type of data set: functional, cell-based.
For another data set, the system named is P388. The data set is described as follows: Cytotoxicity against mouse P388 cells assessed as cell growth inhibition. The data set is classed as functional, cell-based.
The test system of data set [8] is HCT-116. The data set is described as follows: Cytotoxicity against human HCT-116 cells assessed as cell growth inhibition incubated for 4 days by Cell counting kit-8 assay. Type of data set: functional, cell-based. The settings on record: HCT-116, 96 h.
Data set [9] has as its system DU-145. Put plainly: Cytotoxicity against human DU-145 cells assessed as cell growth inhibition. The data set is classed as functional, cell-based.
The test system of data set [10] is HCT-116. Put plainly: Antiproliferative activity against human HCT-116 cells assessed as cell growth inhibition by MTT colorimetric assay. The data set is classed as functional, cell-based.
Data set [11] deals with MCF7. Put plainly: Cytotoxicity against human MCF7 cells assessed as cell growth inhibition incubated for 72 hrs by MTT assay. The data set is classed as functional, cell-based. The following applies: MCF7, 72 h.
Another data set has as its system MDA-MB-435. Put plainly: Antiproliferative activity against human MDA-MB-435 cells assessed as cell growth inhibition by MTT colorimetric assay. Type of data set: functional, cell-based.
Data set [12] is described as follows: Cytotoxicity against human U373 MG cells assessed as cell growth inhibition incubated for 4 to 72 hrs by MTT assay. The data set is classed as functional, cell-based, U-373MG ATCC.
Data set [13] has as its system DU-145. The data set is described as follows: Growth inhibition of human DU-145 cells. The data set is classed as functional.
Data set [14] has as its system KB. Put plainly: Antiproliferative activity against human KB cells assessed as cell growth inhibition by MTT assay. The data set is classed as functional, cell-based.
The test system of data set [15] is A549. Put plainly: Antiproliferative activity against human A549 cells assessed as cell growth inhibition by MTT assay. Type of data set: functional, cell-based.
The test system of data set [16] is HCT-116. Put plainly: Growth inhibition of human HCT-116 cells. The data set is classed as functional.
Data set [17] concerns HeLa. The data set is described as follows: Antiproliferative activity against human HeLa cells assessed as cell growth inhibition by MTT assay. The data set is classed as functional, cell-based.
Data set [18] concerns QG-56. The data set is described as follows: Growth inhibition of human QG-56 cells. Type of data set: functional.
The subject of data set [19] is BGC-823. Put plainly: Antiproliferative activity against human BGC-823 cells assessed as cell growth inhibition by MTT assay. Type of data set: functional, cell-based.
The test system of data set [20] is HCT-8. The data set is described as follows: Antiproliferative activity against human HCT-8 cells assessed as cell growth inhibition by MTT assay. The data set is classed as functional, cell-based.
Another data set relates to NCI-H460. Put plainly: Cytotoxicity against human NCI-H460 cells assessed as cell growth inhibition. Type of data set: functional, cell-based.
The test system of another data set is DLD-1. The data set is described as follows: Cytotoxicity against human DLD-1 cells assessed as cell growth inhibition. Type of data set: functional, cell-based.
The nature of data set [21]: Antiproliferative activity against human HELF cells assessed as cell growth inhibition. The data set is classed as toxicity, cell-based.
The test system of data set [22] is BGC-823. The data set is described as follows: Antiproliferative activity against human BGC-823 cells assessed as cell growth inhibition. The data set is classed as functional, cell-based.
Data set [23] concerns MCF7. Put plainly: Antiproliferative activity against human MCF7 cells assessed as cell growth inhibition. The data set is classed as functional, cell-based.
In data set [24] the test system is HeLa. The data set is described as follows: Antiproliferative activity against human HeLa cells assessed as cell growth inhibition. Type of data set: functional, cell-based.
For another data set, the system named is A2780. Put plainly: Antiproliferative activity against human A2780 cells assessed as cell growth inhibition. The data set is classed as functional, cell-based.
The test system of data set [25] is KB. Put plainly: Antiproliferative activity against human KB cells assessed as cell growth inhibition. The data set is classed as functional, cell-based.
The test system of the next data set is KETR3. The data set is described as follows: Antiproliferative activity against human KETR3 cells assessed as cell growth inhibition. Type of data set: functional, cell-based.
In data set [26] the test system is HCT-8. Put plainly: Antiproliferative activity against human HCT-8 cells assessed as cell growth inhibition. Type of data set: functional, cell-based.
A further data set concerns Bel-7402. The data set is described as follows: Antiproliferative activity against human Bel-7402 cells assessed as cell growth inhibition. The data set is classed as functional, cell-based.
A further data set deals with HL-60. The data set is described as follows: Cytotoxicity against human HL-60 cells assessed as cell growth inhibition. Type of data set: functional, cell-based.

The structures appear in SMILES notation. In brackets after ≈: the same amount, converted by molar mass.

The results in this text go back to ChEMBL document CHEMBL5126503, “Renieramycin-type alkaloids from marine-derived organisms: Synthetic chemistry, biological activity and structural modification” (Eur J Med Chem, 2021).

As for `CC(C)C[C@H](NC(=O)[C@H](Cc1ccccc1)NC(=O)c1cnccn1)B(O)O` [BORTEZOMIB], the IC50 (commonly the concentration that inhibits the measured activity by half) in data set [1] amounted to 14000 nM.
Take `C/C=C(/C)C(=O)OC[C@H]1c2c(c(O)c(C)c3c2OCO3)C[C@H]2[C@H]3C4=C(C[C@@H]([C@H](C#N)N12)N3C)C(=O)C(C)=C(OC)C4=O`: the IC50 in the data set with ASPC1 was 98 nM; with T47D, 4.7 nM; with HCT-116 [2], 39 nM; in the data set on QG-56 [3], 77 nM.
Turning to `COC1=C(C)C(=O)C2=C(C1=O)[C@@H]1[C@@H]3CC4=C(C(=O)C(OC)=C(C)C4=O)[C@H](COC(C)=O)N3[C@@H](O)[C@H](C2)N1C`, the IC50 in the data set with Melanoma cell line came out at 0.0125 µg/mL (≈ 0.0237 µM); in the data set on DU-145 [5], 0.49 nM; with QG-56 [6] it was 0.76 nM; in the data set with HT-29 it was 0.0125 µg/mL (≈ 0.0237 µM); in the data set with A549 [7], 0.0125 µg/mL; with P388 it was 0.0125 µg/mL (≈ 0.0237 µM). In addition, the 50% inhibitory concentration (IC50) in the data set with HCT-116 [8] came to 0.57 nM. The inhibition (as a rule, the change of the read-out against control, counted positive when it falls) at 50 ng/ml in [4] turned out to be 100%.
On to `COC1=C(C)C(=O)C2=C(C1=O)[C@H](COC(C)=O)N1[C@@H](C2)CN(C)C[C@@H]1C#N`, for which the IC50 in the data set with DU-145 [9] came to 990 nM; with HCT-116 [2] it was 54 nM; in the data set with QG-56 [3] it was 220 nM.
As for `COC1=C(C)C(=O)C2=C(C1=O)[C@H]1CN(C)[C@@H](C#N)[C@H](C2)N1C`, the IC50 in the data set with HCT-116 [2] is 84 nM; in the data set with QG-56 [3], 240 nM.
As to `C/C=C(/C)C(=O)OC[C@H]1C2=C(C[C@H]3[C@H]4C5=C(C[C@@H]([C@H](C#N)N13)N4C)C(=O)C(C)=C(OC)C5=O)C(=O)C(C)=C(OC)C2=O` [RENIERAMYCIN M], the IC50 in the data set on ASPC1 was determined as 20 nM; in the data set on HCT-116 [10] it was 16.4 nM; in the data set on T47D, 0.84 nM; in the data set with QG-56 [6] it was 11 nM; with MCF7 [11], 6 nM; in the data set with MDA-MB-435, 6.3 nM. For the same compound, in data set [12], the IC50 is 3.1 nM. The GI50 (in general, the concentration at which growth is held to half of that of the control) with DU-145 [13] is 1700 nM.
For the compound `C/C=C(/C)C(=O)OC[C@H]1C2=C(C[C@H]3[C@H]4C5=C(C[C@@H](C(=O)N13)N4C)C(=O)C(C)=C(OC)C5=O)C(=O)C(C)=C(OC)C2=O` [(-)-RENIERAMYCIN G], the IC50 stood at 3500 nM with KB [14]; 3500 nM with A549 [15]; 3800 nM in the data set on HeLa [17]; 3500 nM with BGC-823 [19]; 3500 nM in the data set with HCT-8 [20]. Also, the GI50 with HCT-116 [16] was 1100 nM; in the data set with QG-56 [18], 1300 nM; with DU-145 [13] it was 1300 nM.
Take `C/C=C(/C)C(=O)OC[C@H]1C2=C(C[C@H]3[C@H]4c5c(O)c(OC)c(C)c(O)c5[C@@H](O)[C@@H]([C@H](C#N)N13)N4C)C(=O)C(C)=C(OC)C2=O`: the IC50 with HCT-116 [2] is 5.6 nM; in the data set on QG-56 [3] it was 11 nM; with NCI-H460, 6.7 nM; in the data set on DLD-1, 5.7 nM.
As for `C/C=C(/C)C(=O)OC[C@H]1c2c(c(OC(C)=O)c(C)c3c2OCO3)C[C@H]2[C@H]3C4=C(C[C@@H]([C@H](C#N)N12)N3C)C(=O)C(C)=C(OC)C4=O`, the concentration for half-maximal inhibition (IC50) in the data set with ASPC1 was 120 nM; in the data set on T47D, 10 nM; in the data set with HCT-116 [2] it was 34 nM; in the data set with QG-56 [3] it was 79 nM.
`COC1=C(C)C(=O)C2=C(C1=O)[C@@H]1[C@@H]3CC4=C(C(=O)C(OC)=C(C)C4=O)[C@H](COC(=O)C(=O)CNC(=O)c4ccccc4)N3[C@@H](C#N)[C@H](C2)N1C`: the concentration for half-maximal inhibition (IC50) (in data set [21]; with BGC-823 [22]; in the data set on MCF7 [23]; with HeLa [24]; in the data set on A2780; in the data set on KB [25]) was 2.12 nM throughout. For the same compound, the IC50 in the data set with KETR3, in the data set on A549 [7], in the data set with HCT-8 [26] and in the data set on Bel-7402 was 2.12 nM in each case.
`C/C=C(/C)C(=O)OC[C@H]1C2=C(C[C@H]3[C@H]4C5=C(C(=O)C(C)=C(OC)C5=O)[C@H](O)[C@@H]([C@H](CC(C)=O)N13)N4C)C(=O)C(C)=C(O)C2=O`: the IC50 with HL-60 and in the data set with A549 [7] was greater than 100000 nM throughout.
